The target in one assay is T1, hCRHR2 (Homo sapiens, UniProt Q13324).
T1 sequence (Q13324 1-411): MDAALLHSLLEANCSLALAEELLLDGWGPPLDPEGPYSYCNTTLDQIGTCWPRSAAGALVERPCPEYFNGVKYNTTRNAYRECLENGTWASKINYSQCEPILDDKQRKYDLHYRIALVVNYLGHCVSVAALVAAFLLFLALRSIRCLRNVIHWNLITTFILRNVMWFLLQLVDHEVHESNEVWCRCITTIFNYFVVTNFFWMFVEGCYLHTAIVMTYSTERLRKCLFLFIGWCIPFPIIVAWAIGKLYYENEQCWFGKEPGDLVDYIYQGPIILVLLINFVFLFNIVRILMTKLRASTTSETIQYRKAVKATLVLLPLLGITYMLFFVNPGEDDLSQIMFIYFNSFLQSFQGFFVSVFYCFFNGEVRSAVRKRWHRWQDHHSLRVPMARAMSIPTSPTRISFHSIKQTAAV
Put plainly: HTRF cAMP assay, determination of hCRHR2 potency (peptide libraries 5 conc., purified peptides 11 conc.). Format: cell-based. The method in brief:
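Read-out was HTRF competitive cAMP detection (d2-labelled cAMP, cryptate-labelled antibody) in suspended, freshly thawed CHO-K1 cells stably carrying human CRHR2.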
For orientation: In TR-FRET formats the signal depends on donor and acceptor labels being close together.

Another assay concerns the target T2, hCRHR1 (Homo sapiens, UniProt P34998).
T2 sequence (P34998 24-415): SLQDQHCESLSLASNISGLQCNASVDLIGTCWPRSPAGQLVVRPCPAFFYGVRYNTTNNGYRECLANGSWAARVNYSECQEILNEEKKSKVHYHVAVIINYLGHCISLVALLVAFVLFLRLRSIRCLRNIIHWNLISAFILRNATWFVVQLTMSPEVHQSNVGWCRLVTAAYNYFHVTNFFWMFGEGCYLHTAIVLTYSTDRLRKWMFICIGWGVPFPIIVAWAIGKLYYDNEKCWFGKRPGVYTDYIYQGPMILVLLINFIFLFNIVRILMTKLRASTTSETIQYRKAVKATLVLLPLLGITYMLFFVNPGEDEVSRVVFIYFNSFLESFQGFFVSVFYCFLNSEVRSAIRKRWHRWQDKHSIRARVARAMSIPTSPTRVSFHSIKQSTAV
Put plainly: HTRF cAMP assay, determination of hCRHR1 potency (peptide libraries 5 conc., purified peptides 11 conc.). Format: cell-based. The method in brief: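 Cellular cAMP was read by time-resolved FRET between d2-labelled cAMP and cryptate anti-cAMP antibody. The cells were freshly thawed suspension CHO-K1 cells stably expressing human CRHR1.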

The mark [1] stands for this setting: Table 3, matched molecular pairs X^38 L vs Nle, peptide library of Example 4, read-out: hCRHR2 pEC50 (converted).
Setting [2] is: Table 3, matched molecular pairs X^38 L vs Nle, peptide library of Example 4, read-out: hCRHR1 pEC50 (converted).
[3] abbreviates: Table 4, library peptides having X^38 = Nle, read-out: hCRHR2 pEC50 (converted).
[4] abbreviates: Table 4, library peptides having X^38 = Nle, read-out: hCRHR1 pEC50 (converted).

Each structure is given as a SMILES string. Where two headings read alike, the source gives them in different places. Starred links: 1 amine or outer side, 2 acyl side, 3 side chain; linkers in the order of their positions; H or OH if unused. Non-standard residues stand in square brackets, D forms with d. Residues, ends and D or L forms follow the SMILES beside them. Groups on a side chain read outwards from the residue. *: point of attachment. C20 diacid = O=C(O)CCCCCCCCCCCCCCCCCCC(=O)*; γGlu = O=C(O)[C@H](CCC(=O)[*:2])N[*:1]; NMeI = CC[C@H](C)[C@H](NC)C(=O)O; Nle = CCCC[C@H](N)C(=O)O; AEEA = NCCOCCOCC(=O)O; Aib = CC(C)(N)C(=O)O

For `CC[C@H](C)[C@H](N)C(=O)N[C@H](C(=O)N[C@@H](CC(C)C)C(=O)N[C@@H](CO)C(=O)N[C@@H](CC(C)C)C(=O)N[C@@H](CC(=O)O)C(=O)N[C@H](C(=O)N1CCC[C@H]1C(=O)N[C@H](C(=O)NCC(=O)N[C@@H](CC(C)C)C(=O)N[C@@H](CC(C)C)C(=O)N[C@@H](CCC(N)=O)C(=O)N[C@H](C(=O)N[C@@H](CC(C)C)C(=O)N[C@@H](CC(C)C)C(=O)N[C@@H](CCC(=O)O)C(=O)N[C@@H](CCC(N)=O)C(=O)N[C@@H](C)C(=O)N[C@@H](CCCNC(=N)N)C(=O)N[C@@H](C)C(=O)N[C@@H](CCC(N)=O)C(=O)N[C@@H](C)C(=O)N[C@@H](C)C(=O)N[C@@H](CCCNC(=N)N)C(=O)N[C@@H](CCC(=O)O)C(=O)N[C@@H](CCCNC(=N)N)C(=O)N[C@@H](C)C(=O)N[C@@H](CCCCNC(=O)COCCOCCNC(=O)COCCOCCNC(=O)CC[C@H](NC(=O)CC[C@H](NC(=O)CCCCCCCCCCCCCCCCCCC(=O)O)C(=O)O)C(=O)O)C(=O)N[C@H](C(=O)N[C@@H](CC(N)=O)C(=O)N[C@@H](C)C(=O)N[C@@H](CCC(=O)O)C(=O)N[C@H](C(=O)N[C@@H](CC(C)C)C(=O)N[C@@H](C)C(=O)N[C@@H](CCC(=O)O)C(=O)N[C@H](C(N)=O)C(C)C)[C@@H](C)CC)[C@@H](C)O)[C@@H](C)CC)[C@@H](C)CC)C(C)C)C(C)C` [compound 48] (H-IVLSLDVPIGLLQILLEQARAQAARERAK([AEEA-AEEA-γGlu-γGlu-C20 diacid])TNAEILAEV-NH2), the EC50 on hCRHR2 (library peptides, matched molecular pairs L vs Nle in position X^38, read-out: Potency hCRHR2 pEC50 (converted)) was 0.398 nM; on hCRHR1 (library peptides, matched molecular pairs L vs Nle in position X^38, read-out: Potency hCRHR1 pEC50 (converted)), 20000 nM.

In the case of `CC[C@H](C)[C@H](N)C(=O)N[C@H](C(=O)N[C@@H](CC(C)C)C(=O)N[C@@H](CO)C(=O)N[C@@H](CC(C)C)C(=O)N[C@@H](CC(=O)O)C(=O)N[C@H](C(=O)N1CCC[C@H]1C(=O)N[C@H](C(=O)NCC(=O)N[C@@H](CC(C)C)C(=O)N[C@@H](CC(C)C)C(=O)N[C@@H](CCC(N)=O)C(=O)N[C@H](C(=O)N[C@@H](CC(C)C)C(=O)N[C@@H](CC(C)C)C(=O)N[C@@H](CCC(=O)O)C(=O)N[C@@H](CCC(N)=O)C(=O)N[C@@H](C)C(=O)N[C@@H](CCCNC(=N)N)C(=O)N[C@@H](C)C(=O)N[C@@H](CCC(N)=O)C(=O)N[C@@H](C)C(=O)N[C@@H](CCC(N)=O)C(=O)N[C@@H](CCCNC(=N)N)C(=O)N[C@@H](CCC(=O)O)C(=O)N[C@@H](CCC(N)=O)C(=O)N[C@@H](C)C(=O)N[C@@H](CCCCNC(=O)COCCOCCNC(=O)COCCOCCNC(=O)CC[C@H](NC(=O)CC[C@H](NC(=O)CCCCCCCCCCCCCCCCCCC(=O)O)C(=O)O)C(=O)O)C(=O)N[C@H](C(=O)N[C@@H](CC(N)=O)C(=O)N[C@@H](C)C(=O)N[C@@H](CCC(=O)O)C(=O)N[C@H](C(=O)N[C@@H](CC(C)C)C(=O)N[C@@H](C)C(=O)N[C@@H](CCC(=O)O)C(=O)N[C@H](C(N)=O)C(C)C)[C@@H](C)CC)[C@@H](C)O)[C@@H](C)CC)[C@@H](C)CC)C(C)C)C(C)C` [SEQ ID NO: 31] (H-IVLSLDVPIGLLQILLEQARAQAQREQAK([AEEA-AEEA-γGlu-γGlu-C20 diacid])TNAEILAEV-NH2), the figures for the EC50 on hCRHR2 (setting [1]) and at hCRHR1 (setting [2]) were 0.794 nM and 3980 nM, respectively.

On to `CCCC[C@H](NC(=O)[C@@H](NC(=O)[C@H](CCC(=O)O)NC(=O)C(C)(C)NC(=O)[C@H](CC(N)=O)NC(=O)[C@@H](NC(=O)[C@H](CCCCNC(=O)COCCOCCNC(=O)COCCOCCNC(=O)CC[C@H](NC(=O)CC[C@H](NC(=O)CCCCCCCCCCCCCCCCCCC(=O)O)C(=O)O)C(=O)O)NC(=O)[C@H](C)NC(=O)[C@H](CCC(N)=O)NC(=O)[C@H](CCC(=O)O)NC(=O)[C@H](CCCNC(=N)N)NC(=O)[C@H](C)NC(=O)[C@H](C)NC(=O)[C@H](CCCNC(=N)N)NC(=O)[C@H](C)NC(=O)[C@H](CCCNC(=N)N)NC(=O)[C@H](C)NC(=O)[C@H](CCC(N)=O)NC(=O)[C@H](CCC(N)=O)NC(=O)[C@H](CC(C)C)NC(=O)[C@H](CC(C)C)NC(=O)[C@@H](NC(=O)[C@H](CCC(N)=O)NC(=O)[C@H](CC(C)C)NC(=O)[C@H](CC(C)C)NC(=O)CNC(=O)[C@@H](NC(=O)[C@@H]1CCCN1C(=O)[C@@H](NC(=O)[C@H](CC(=O)O)NC(=O)[C@H](CC(C)C)NC(=O)[C@H](CO)NC(=O)[C@H](CC(C)C)NC(=O)[C@@H](NC(=O)[C@@H](NC)[C@@H](C)CC)C(C)C)C(C)C)[C@@H](C)CC)[C@@H](C)CC)[C@@H](C)O)[C@@H](C)CC)C(=O)N[C@@H](C)C(=O)N[C@@H](CCC(=O)O)C(=O)N[C@H](C(N)=O)C(C)C` [compound 202] (H-[NMeI]VLSLDVPIGLLQILLQQARARAAREQAK([AEEA-AEEA-γGlu-γGlu-C20 diacid])TN[Aib]EI[Nle]AEV-NH2), for which the EC50 on hCRHR2 (setting [3]) was 0.0251 nM; at hCRHR1 (setting [4]), 794 nM.

As for `CC[C@H](C)[C@H](N)C(=O)N[C@H](C(=O)N[C@@H](CC(C)C)C(=O)N[C@@H](CO)C(=O)N[C@@H](CC(C)C)C(=O)N[C@@H](CC(=O)O)C(=O)N[C@H](C(=O)N1CCC[C@H]1C(=O)N[C@H](C(=O)NCC(=O)N[C@@H](CC(C)C)C(=O)N[C@@H](CC(C)C)C(=O)N[C@@H](CCC(N)=O)C(=O)N[C@H](C(=O)N[C@@H](CC(C)C)C(=O)N[C@@H](CC(C)C)C(=O)N[C@@H](CCC(=O)O)C(=O)N[C@@H](CCC(N)=O)C(=O)N[C@@H](C)C(=O)N[C@@H](CCCNC(=N)N)C(=O)N[C@@H](C)C(=O)N[C@@H](CCC(=O)O)C(=O)N[C@@H](C)C(=O)N[C@@H](C)C(=O)N[C@@H](CCCNC(=N)N)C(=O)N[C@@H](CCC(=O)O)C(=O)N[C@@H](CCC(N)=O)C(=O)N[C@@H](C)C(=O)N[C@@H](CCCCNC(=O)COCCOCCNC(=O)COCCOCCNC(=O)CC[C@H](NC(=O)CC[C@H](NC(=O)CCCCCCCCCCCCCCCCCCC(=O)O)C(=O)O)C(=O)O)C(=O)N[C@H](C(=O)N[C@@H](CC(N)=O)C(=O)N[C@@H](C)C(=O)N[C@@H](CCC(=O)O)C(=O)N[C@H](C(=O)N[C@@H](CC(C)C)C(=O)N[C@@H](C)C(=O)N[C@@H](CCC(=O)O)C(=O)N[C@H](C(N)=O)C(C)C)[C@@H](C)CC)[C@@H](C)O)[C@@H](C)CC)[C@@H](C)CC)C(C)C)C(C)C` [SEQ ID NO: 25] (H-IVLSLDVPIGLLQILLEQARAEAAREQAK([AEEA-AEEA-γGlu-γGlu-C20 diacid])TNAEILAEV-NH2), the EC50 is 0.794 nM at hCRHR2 (setting [1]) and 6310 nM on hCRHR1 (setting [2]).

With `CCCC[C@H](NC(=O)[C@@H](NC(=O)[C@H](CCC(=O)O)NC(=O)[C@H](C)NC(=O)[C@H](CC(N)=O)NC(=O)C(C)(C)NC(=O)[C@H](CCCCNC(=O)COCCOCCNC(=O)COCCOCCNC(=O)CC[C@H](NC(=O)CC[C@H](NC(=O)CCCCCCCCCCCCCCCCCCC(=O)O)C(=O)O)C(=O)O)NC(=O)[C@H](C)NC(=O)[C@H](CCC(N)=O)NC(=O)[C@H](CCC(=O)O)NC(=O)[C@H](CCCNC(=N)N)NC(=O)[C@H](C)NC(=O)[C@H](C)NC(=O)[C@H](CCCNC(=N)N)NC(=O)[C@H](C)NC(=O)[C@H](CCCNC(=N)N)NC(=O)[C@H](C)NC(=O)[C@H](CCC(N)=O)NC(=O)[C@@H](NC(=O)[C@H](CC(C)C)NC(=O)[C@H](CC(C)C)NC(=O)[C@@H](NC(=O)[C@H](CCC(N)=O)NC(=O)[C@H](CC(C)C)NC(=O)[C@H](CC(C)C)NC(=O)CNC(=O)[C@@H](NC(=O)[C@@H]1CCCN1C(=O)[C@@H](NC(=O)[C@H](CC(=O)O)NC(=O)[C@H](CC(C)C)NC(=O)[C@H](CO)NC(=O)[C@H](CC(C)C)NC(=O)[C@@H](NC(=O)[C@@H](NC)[C@@H](C)CC)C(C)C)C(C)C)[C@@H](C)CC)[C@@H](C)CC)C(C)C)[C@@H](C)CC)C(=O)N[C@@H](C)C(=O)N[C@@H](CCC(=O)O)C(=O)N[C@H](C(N)=O)C(C)C` [compound 138] (H-[NMeI]VLSLDVPIGLLQILLVQARARAAREQAK([AEEA-AEEA-γGlu-γGlu-C20 diacid])[Aib]NAEI[Nle]AEV-NH2), the EC50 on hCRHR2 (setting [3]) was 0.0158 nM; on hCRHR1 (setting [4]) it was 1000 nM.
